# Laboratory results published in publication PMC11637823, “Evaluating the Antimicrobial Efficacy of a Designed Synthetic Peptide against Pathogenic Bacteria” (Journal of Microbiology and Biotechnology, 2024).
# Ends that are not written are not given here.
# How the values were obtained:
# [1] = system: A. baumannii biofilm (IC 003321216); experiment: Mature biofilm eradication, MTT viability; conditions: ciprofloxacin alone
# [2] = system: Escherichia coli KPC+ 001812446; experiment: microbe, parasite or virus in culture
# Procedure: (§1) Clinical and Laboratory Standards Institute (CLSI) guidelines performed the peptide MIC assays. Bacterial colonies were isolated on the Muller Hinton Agar (MHA) and plated at a final concentration of 1.5 × 10^5 CFU/ml.
# (§2) For the results, bacterial growth was determined by visual inspection and confirmed by absorbance measurement at 595 nm after 24 h of incubation using a Multiskan GO microplate reader (Thermo Fisher Scientific, USA). […] The rest of the assay was conducted as previously described.
# (§3) The MBC was determined based on the MIC results. Three replicates of 10 μl were extracted from the microplate wells, placed on MHA, and then kept in an incubator at 37°C for 24 h. […] All experiments were performed in triplicate.
# [3] = system: Pseudomonas aeruginosa ATCC 27853; experiment: microbe, parasite or virus in culture
# Procedure: as §1, §2, §3
# [4] = system: Staphylococcus aureus (MRSA) ATCC 33591; experiment: microbe, parasite or virus in culture
# Procedure: as §1, §2, §3
# [5] = system: Staphylococcus aureus (MRSA) ATCC 43300; experiment: microbe, parasite or virus in culture
# Procedure: as §1, §2, §3
# [6] = system: Staphylococcus saprophyticus ATCC 29970; experiment: microbe, parasite or virus in culture
# Procedure: as §1, §2, §3
# Gram-negative bacteria = experiment: MIC and MBC assays, span over strains; type: cell-based
# Procedure: as §1, §2, §3
# E. coli = system: E. coli; set-up: method as in PMID 16352849; conditions: cited from earlier work
# ESKAPE pathogens = conditions: at one-third of the MIC; cited from earlier work
# Description: A. baumannii, known for colonising medical equipment surfaces like urinary catheters to form a biofilm, contributes to recurrent and persistent patient infections. WLBU-2, a synthetic cationic peptide, and LL-37, a naturally occurring antimicrobial peptide, underwent testing for efficacy against a range ...
# [7] = system: Acinetobacter baumannii ATCC 19906; conditions: ATCC 19906, 24 h
# Procedure: as §1, §2, §3
# [8] = system: Acinetobacter baumannii IC 003321216; conditions: IC 003321216, 24 h
# Procedure: as §1, §2, §3
# [9] = system: Escherichia coli ATCC 35218; conditions: ATCC 35218, 24 h
# Procedure: as §1, §2, §3
# [10] = system: Klebsiella pneumoniae ATCC 700603; conditions: ATCC 700603, 24 h
# Procedure: as §1, §2, §3
# human erythrocytes = type: cell-based; conditions: 100 µM
# Procedure: Hemolytic activity. As hemolysis is an effect widely observed among antimicrobial peptides, we investigated the RK8 peptide hemolytic activity based on the protocol proposed by Uggerhøj et al. using erythrocytes. The blood sample (1 ml) was washed three times with 3 ml of saline solution through centrifugation cycles of 8 min at 1,380 ×g to secure a concentrated solution of erythrocytes. […] The samples were incubated for 60 min at 37°C and sequentially centrifuged for 10 min at 2,455 ×g. Subsequently, 100 μl of the supernatant was transferred to 96-well microplate wells in triplicate. The free haemoglobin content was determined at 414 nm on a Multiskan GO microplate reader (Thermo Fisher Scientific).
# in vitro = experiment: in vitro
# Procedure: The mixture was maintained at 30°C. Aliquots of 150 μl were collected after 0, 15, 30, 45, 60, and 120 min, mixed with ten μl of Trifluoroacetic Acid (TFA) and centrifuged at 14 000 rpm at 4°C for 10 min [19]. High-Performance Liquid Chromatography (HPLC) monitored the stability of the peptide using the C-18 reversed-phase hydrophobic column (μ Bondapak C18, 3.9 × 300 mm, Waters, USA) at 25°C. The peptide's remaining percentage during degradation kinetics was calculated by integrating the peak area corresponding to the RK8 peptide, injecting 40 μl of the incubation product in triplicate. The assay was conducted in an Ultimate 3000 chromatograph (Thermo Fisher Scientific). A separation program of 60 min at 1 ml/min was implemented, with monitoring of the 220 and 280 nm wavelengths. Thermo Scientific's ChromeleonTM Chromatography Data System (CDS) 7 software determined the area under the curve.
# [11] = system: E. coli, P. aeruginosa, and A. baumanii; conditions: 24 h
# [12] = system: RAW 264.7 murine macrophages; conditions: 64 µM
# Procedure: Cellular viability. RAW 264.7 murine macrophages' cellular viability was evaluated in the presence of the RK8 peptide, according to the method proposed by Mosmann [18], using the enzymatic reduction of the reagent 3-(4,5-dimethylthiazol-2-yl bromide) -2,5-diphenyltetrazolium (MTT).
# After detaching from the culture bottle, their density was determined, and they were seeded in a 96-well microplate at a density of 6 × 10^3 cells per well. After being placed in microplates, the cells were incubated for 24 h. The culture medium was replaced with a DMEM culture medium lacking SFB supplementation. Instead, it contained a serial dilution of RK8 ranging from 1 to 64 μM. After 24 h, the medium containing RK8 was removed and replaced with 100 μl of DMEM medium containing MTT 0.5 mg/ml. After four hours of incubation, the medium was removed again, and the reduced formazan crystals were resuspended with the addition of 100 μl of DMSO. Then, the absorbance of the wells was determined at 630 nm in a Varioskan microplate reader (Thermo Fisher Scientific). Three independent experiments were performed in triplicate. Cell viability was calculated from the following formula:
# Cell viability (%) = (AbsSample÷AbsNegative control) × 100
# [13] = Staphylococcus saprophyticus, ATCC29970, 24 h
compound,measurement,setting,value
"O=C(O)c1cn(C2CC2)c2cc(N3CCNCC3)c(F)cc2c1=O [Ciprofloxacin, ciprofloxacin]",impact on biofilm,[1],no impact
"CN[C@H](CC(C)C)C(=O)N[C@H]1C(=O)N[C@@H](CC(N)=O)C(=O)N[C@H]2C(=O)N[C@H]3C(=O)N[C@H](C(=O)N[C@H](C(=O)O)c4cc(O)cc(O)c4-c4cc3ccc4O)[C@H](O)c3ccc(c(Cl)c3)Oc3cc2cc(c3O[C@@H]2O[C@H](CO)[C@@H](O)[C@H](O)[C@H]2O[C@H]2C[C@](C)(N)[C@H](O)[C@H](C)O2)Oc2ccc(cc2Cl)[C@H]1O [Vancomycin, vancomycin, reference compound]",MBC,"[2]; Escherichia coli, 24 h",0.5 µM
same,MIC,"[2]; Escherichia coli, 24 h",0.5 µM
same,MBC,"[3]; Pseudomonas aeruginosa, ATCC27853, 24 h",1 µM
same,MBC,"[4]; Staphylococcus aureus, 24 h",1 µM
same,MBC,"[5]; Staphylococcus aureus, ATCC43300|MRSA, 24 h, 10 μl from MIC wells on MHA, 37°C, triplicate",1 µM
same,MBC,"[6]; 10 μl from MIC wells on MHA, 37°C, 24 h, triplicate",one
same,MBC,[6]; [13],1 µM
same,MIC,[6]; [13],0.5 µM
same,MBC,Gram-negative bacteria; read-out: MBC values,0.5 to 4 µM
same,MIC,"Gram-negative bacteria; span over Gram-negative strains, 1.5 × 10^5 CFU per ml",0.5 to 8 µM
Indolicidin,MIC,E. coli,10 µM
LL-37,inhibition of biofilm formation,ESKAPE pathogens,90%
RKWRKWWK [RK8],MBC,"[2]; KPC+ 001812446, 24 h",8 µM
same,MIC,"[2]; KPC+ 001812446, 24 h",16 µM
same,MBC,"[3]; ATCC 27853, 24 h",64 µM
same,MBC,"[4]; ATCC 33591, 24 h",8 µM
same,MIC,"[4]; ATCC 33591, 24 h",8 µM
same,MBC,"[5]; ATCC 43300, 24 h",8 µM
same,MIC,"[5]; ATCC 43300, 24 h",16 µM
same,MBC,"[6]; ATCC 29970, 24 h",64 µM
same,MIC,"[6]; ATCC 29970, 24 h",>64 µM
same,MBC,[7],4 µM
same,MIC,[7],>64 µM
same,MBC,[8],4 µM
same,MIC,[8],64 µM
same,MBC,[9],2 µM
same,MIC,[9],>64 µM
same,MBC,[10],64 µM
same,MIC,[10],>64 µM
same,hemolysis,human erythrocytes,approximately 4.6%
same,decrease in the overall area,"in vitro; 25% FBS in ultrapure water, 30°C, 120 min, RP-HPLC C18 peak area, triplicate",40%
same,area under the RK8 peak (intact peptide),"in vitro; 25% FBS in ultrapure water, 30°C, first 45 min, RP-HPLC C18 peak area, triplicate",unaffected
same,"metabolised at 1 h, 0.385 mg/ml",in vitro; 25% fetal bovine serum (FBS),12.2%
same,"remaining at 2 h, 0.385 mg/ml",in vitro; 25% fetal bovine serum (FBS),~60%
same,concentrations with bactericidal effect (consistent MIC and MBC values),[11],0.5 to 4 µM
same,cell viability,[12],90.1%
